Columns and labels:
Assay in all cases: normalised viability (% of control), CellTiter-Blue; higher = more viable cells (about 100 = DMSO control)
Conditions in all cases: incubation time: 72 h
MDA-MB-468 = tested on: MDA-MB-468
Method in brief: (§1)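 Each value is normalised viability at a single listed concentration of the series. Breast cancer cell lines in 384-well plates were incubated 72 h with compound and read by CellTiter-Blue fluorescence at 560/590 nm, with vehicle set to 100 and a positive kill control to 0 on every plate.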

BT-549 = tested on: BT-549
Method in brief: as §1

HDQ-P1 = tested on: HDQ-P1
Method in brief: as §1

HCC1937 = tested on: HCC1937
Method in brief: as §1

CAL-148 = tested on: CAL-148
Method in brief: as §1

HCC1143 = tested on: HCC1143
Method in brief: as §1

SK-BR-3 = tested on: SK-BR-3
Method in brief: as §1

HCC1599 = tested on: HCC1599
Method in brief: as §1

Hs578T = tested on: Hs578T
Method in brief: as §1

CAL-120 = tested on: CAL-120
Method in brief: as §1

SMILES: OC[C@H]1O[C@@H](n2cnc3c2N=CNC[C@H]3O)C[C@@H]1O [Pentostatin]
- normalised viability (MDA-MB-468; 10 nM): 115%
- normalised viability (MDA-MB-468; 1000 nM): 99.4%
- normalised viability (MDA-MB-468; 10000 nM): 104%
- normalised viability (BT-549; 10 nM): 100%
- normalised viability (BT-549; 1000 nM): 98.1%
- normalised viability (BT-549; 10000 nM): 85.3%
- normalised viability (HDQ-P1; 3 nM): 118%
- normalised viability (HDQ-P1; 30 nM): 99%
- normalised viability (HDQ-P1; 100 nM): 100%
- normalised viability (HCC1937; 10 nM): 80.3%
- normalised viability (HCC1937; 1000 nM): 91.8%
- normalised viability (HCC1937; 10000 nM): 84.2%
- normalised viability (CAL-148; 3 nM): 116%
- normalised viability (CAL-148; 30 nM): 115%
- normalised viability (CAL-148; 100 nM): 110%
- normalised viability (HCC1143; 10 nM): 114%
- normalised viability (HCC1143; 1000 nM): 103%
- normalised viability (HCC1143; 10000 nM): 102%
- normalised viability (SK-BR-3; 10 nM): 108%
- normalised viability (SK-BR-3; 1000 nM): 104%
- normalised viability (SK-BR-3; 10000 nM): 116%
- normalised viability (HCC1599; 10 nM): 88.3%
- normalised viability (HCC1599; 1000 nM): 92.3%
- normalised viability (HCC1599; 10000 nM): 93.4%
- normalised viability (Hs578T; 10 nM): 111%
- normalised viability (Hs578T; 1000 nM): 101%
- normalised viability (Hs578T; 10000 nM): 105%
- normalised viability (CAL-120; 10 nM): 115%
- normalised viability (CAL-120; 1000 nM): 103%
- normalised viability (CAL-120; 10000 nM): 94.4%

SMILES: N#CC[C@H](C1CCCC1)n1cc(-c2ncnc3[nH]ccc23)cn1 [Ruxolitinib]
- normalised viability (MDA-MB-468; 10 nM): 90.5%
- normalised viability (MDA-MB-468; 1000 nM): 104%
- normalised viability (MDA-MB-468; 10000 nM): 100%
- normalised viability (BT-549; 10 nM): 86.3%
- normalised viability (BT-549; 1000 nM): 90.9%
- normalised viability (BT-549; 10000 nM): 73.4%
- normalised viability (HDQ-P1; 3 nM): 84%
- normalised viability (HDQ-P1; 30 nM): 83.6%
- normalised viability (HDQ-P1; 100 nM): 104%
- normalised viability (HCC1937; 10 nM): 114%
- normalised viability (HCC1937; 1000 nM): 94.1%
- normalised viability (HCC1937; 10000 nM): 74%
- normalised viability (CAL-148; 3 nM): 92%
- normalised viability (CAL-148; 30 nM): 82.4%
- normalised viability (CAL-148; 100 nM): 94.1%
- normalised viability (HCC1143; 10 nM): 107%
- normalised viability (HCC1143; 1000 nM): 107%
- normalised viability (HCC1143; 10000 nM): 98.2%
- normalised viability (SK-BR-3; 10 nM): 95.4%
- normalised viability (SK-BR-3; 1000 nM): 87.3%
- normalised viability (SK-BR-3; 10000 nM): 103%
- normalised viability (HCC1599; 10 nM): 114%
- normalised viability (HCC1599; 1000 nM): 102%
- normalised viability (HCC1599; 10000 nM): 91.1%
- normalised viability (Hs578T; 10 nM): 108%
- normalised viability (Hs578T; 1000 nM): 104%
- normalised viability (Hs578T; 10000 nM): 93.5%
- normalised viability (CAL-120; 10 nM): 102%
- normalised viability (CAL-120; 1000 nM): 99%
- normalised viability (CAL-120; 10000 nM): 94.5%

SMILES: C=CC[C@@H]1/C=C(\C)C[C@H](C)C[C@H](OC)[C@H]2O[C@@](O)(C(=O)C(=O)N3CCCC[C@H]3C(=O)O[C@H](/C(C)=C/[C@@H]3CC[C@@H](O)[C@H](OC)C3)[C@H](C)[C@@H](O)CC1=O)[C@H](C)C[C@@H]2OC [Tacrolimus]
- normalised viability (MDA-MB-468; 10 nM): 106%
- normalised viability (MDA-MB-468; 1000 nM): 118%
- normalised viability (MDA-MB-468; 10000 nM): 125%
- normalised viability (BT-549; 10 nM): 89.5%
- normalised viability (BT-549; 1000 nM): 103%
- normalised viability (BT-549; 10000 nM): 89.8%
- normalised viability (HDQ-P1; 3 nM): 116%
- normalised viability (HDQ-P1; 30 nM): 120%
- normalised viability (HDQ-P1; 100 nM): 133%
- normalised viability (HCC1937; 10 nM): 114%
- normalised viability (HCC1937; 1000 nM): 63.1%
- normalised viability (HCC1937; 10000 nM): 92.5%
- normalised viability (CAL-148; 3 nM): 97.3%
- normalised viability (CAL-148; 30 nM): 101%
- normalised viability (CAL-148; 100 nM): 101%
- normalised viability (HCC1143; 10 nM): 102%
- normalised viability (HCC1143; 1000 nM): 118%
- normalised viability (HCC1143; 10000 nM): 102%
- normalised viability (SK-BR-3; 10 nM): 93.5%
- normalised viability (SK-BR-3; 1000 nM): 105%
- normalised viability (SK-BR-3; 10000 nM): 108%
- normalised viability (HCC1599; 10 nM): 109%
- normalised viability (HCC1599; 1000 nM): 101%
- normalised viability (HCC1599; 10000 nM): 95.5%
- normalised viability (Hs578T; 10 nM): 104%
- normalised viability (Hs578T; 1000 nM): 103%
- normalised viability (Hs578T; 10000 nM): 87.8%
- normalised viability (CAL-120; 10 nM): 106%
- normalised viability (CAL-120; 1000 nM): 103%
- normalised viability (CAL-120; 10000 nM): 106%

SMILES: C=CCNC1=C2C[C@@H](C)C[C@H](OC)[C@H](O)[C@@H](C)/C=C(\C)[C@H](OC(N)=O)[C@@H](OC)/C=C\C=C(/C)C(=O)NC(=CC1=O)C2=O [Tanespimycin]
- normalised viability (MDA-MB-468; 10 nM): 113%
- normalised viability (MDA-MB-468; 1000 nM): 65.5%
- normalised viability (MDA-MB-468; 10000 nM): 81.3%
- normalised viability (BT-549; 10 nM): 81.5%
- normalised viability (BT-549; 1000 nM): 31%
- normalised viability (BT-549; 10000 nM): 20.4%
- normalised viability (HDQ-P1; 3 nM): 92.6%
- normalised viability (HDQ-P1; 30 nM): 85.9%
- normalised viability (HDQ-P1; 100 nM): 58.6%
- normalised viability (HCC1937; 10 nM): 140%
- normalised viability (HCC1937; 1000 nM): 25.8%
- normalised viability (HCC1937; 10000 nM): 27.1%
- normalised viability (CAL-148; 3 nM): 97.8%
- normalised viability (CAL-148; 30 nM): 89.7%
- normalised viability (CAL-148; 100 nM): 38.5%
- normalised viability (HCC1143; 10 nM): 64.6%
- normalised viability (HCC1143; 1000 nM): 30.2%
- normalised viability (HCC1143; 10000 nM): 29.3%
- normalised viability (SK-BR-3; 10 nM): 73.6%
- normalised viability (SK-BR-3; 1000 nM): 17.4%
- normalised viability (SK-BR-3; 10000 nM): 13%
- normalised viability (HCC1599; 10 nM): 123%
- normalised viability (HCC1599; 1000 nM): 42.7%
- normalised viability (HCC1599; 10000 nM): 31.3%
- normalised viability (Hs578T; 10 nM): 77.1%
- normalised viability (Hs578T; 1000 nM): 35.8%
- normalised viability (Hs578T; 10000 nM): 24.9%
- normalised viability (CAL-120; 10 nM): 74.2%
- normalised viability (CAL-120; 1000 nM): 24.2%
- normalised viability (CAL-120; 10000 nM): 16.4%

From the supplement of paper PMC4862054
